Measured values published in ChEMBL document CHEMBL1147730, “3D-QSAR studies on cannabinoid CB1 receptor agonists: G-protein activation as biological data” (J Med Chem, 2006).

Legend:
Cannabinoid receptor 1 = Cannabinoid receptor 1 (Rattus norvegicus, UniProt P20272); assay: (§1) […] [35S]GTP-gamma-S from rat cerebellar CB1 receptor; assay type: functional, Wistar
[1] = target: Cannabinoid receptor 1 (Rattus norvegicus) (UniProt P20272); assay: as §1; assay type: functional; conditions: Wistar
Chain of Cannabinoid receptor 1 (Rattus norvegicus) (P20272 whole entry): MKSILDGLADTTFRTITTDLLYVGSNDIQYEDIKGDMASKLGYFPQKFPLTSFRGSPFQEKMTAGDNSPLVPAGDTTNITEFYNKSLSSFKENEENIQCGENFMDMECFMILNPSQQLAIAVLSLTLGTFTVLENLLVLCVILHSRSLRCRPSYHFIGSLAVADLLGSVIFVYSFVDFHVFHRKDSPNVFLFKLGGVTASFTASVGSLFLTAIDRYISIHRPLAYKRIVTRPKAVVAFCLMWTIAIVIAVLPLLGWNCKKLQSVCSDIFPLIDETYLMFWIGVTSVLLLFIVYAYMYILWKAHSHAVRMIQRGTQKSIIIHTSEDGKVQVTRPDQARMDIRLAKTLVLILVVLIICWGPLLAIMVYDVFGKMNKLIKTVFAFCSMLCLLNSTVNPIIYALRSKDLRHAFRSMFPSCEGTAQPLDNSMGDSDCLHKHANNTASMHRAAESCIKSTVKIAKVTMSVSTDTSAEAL

Chain of Cannabinoid receptor 1 (P20272 whole entry): as above

Compound | EC50 (Cannabinoid receptor 1) | Emax [1]
CC1=CC[C@@H]2[C@@H](C1)c1c(O)cc(C(C)(C)CCCCBr)cc1OC2(C)C | 0.01 µM | 400%
CCCCC/C=C\C/C=C\C/C=C\C/C=C\CCCCOC(=O)[C@H](O)CO | – | 255%
CCCCC/C=C\C/C=C\C/C=C\C/C=C\CCCC(=O)NC1CC1 | 0.398 µM | 351%
CCCCCCC(C)(C)c1ccc([C@@H]2C[C@H](O)CC[C@H]2CCCO)c(O)c1 | – | 443%
CCCCCCC(C)(C)c1cc(O)c2c(c1)OC(C)(C)[C@@H]1CC=C(CO)C[C@@H]21 | 0.00501 µM | 396%
CCCCCc1cc(O)c2c(c1)OC(C)(C)[C@@H]1CCC(C)=C[C@@H]21 | – | 159%
CCCCC/C=C\C/C=C\C/C=C\C/C=C\CCCCNC(=O)CC | 3.16 µM | 213%
CCCCC/C=C\C/C=C\C/C=C\C/C=C\CCCCNC(=O)CCC | 3.16 µM | 199%
CCCCCCC(C)(C)/C=C\C/C=C\C/C=C\C/C=C\CCCOC(CO)CO | 50.1 µM | 474%
CCCCC/C=C\C/C=C\C/C=C\C/C=C\CCCC(=O)NCCCl | 0.316 µM | 326%
CCCCCc1cc(O)c2c(c1)OC(C)(C)[C@@H]1CC=C(C)C[C@@H]21 [DELTA-8-TETRAHYDROCANNABINOL] | – | 184%
CCCCC/C=C\C/C=C\C/C=C\C/C=C\CCCNC(=O)CCO | 15.8 µM | 284%
CCCCC/C=C\C/C=C\C/C=C\C/C=C\CCCC(=O)C(F)(F)F [ARACHIDONYL TRIFLUOROMETHYLKETONE] | 25.1 µM | 161%
CCCCCc1cc(O)c2c(c1)OC(C)(C)c1ccc(C)cc1-2 [CANNABINOL] | 0.316 µM | 131%
CCCCCCC(C)(C)/C=C\C/C=C\C/C=C\C/C=C\CCCCOC(CO)CO | 39.8 µM | 352%
CCCCC/C=C\C/C=C\C/C=C\C/C=C\CCCNC(=O)CC | 2 µM | 260%
CC1=CC[C@@H]2[C@@H](C1)c1c(O)cc(C(C)(C)CCCCC#N)cc1OC2(C)C | 0.01 µM | 369%
CCCCCCC(C)(C)/C=C\C/C=C\C/C=C\C/C=C\CCCC(=O)OC(CO)CO | 50.1 µM | 332%
CCCC(C)(C)c1ccc2c(c1)OC(C)(C)[C@@H]1CC=C(C)C[C@@H]21 | 2 µM | 158%
CCCCC/C=C\C/C=C\C/C=C\C/C=C\CCCNC(=O)CCC | 1.26 µM | 210%
CCCCCCC(C)(C)/C=C\C/C=C\C/C=C\C/C=C\CCC(=O)OC(CO)CO | 50.1 µM | 382%
CCCCC/C=C\C/C=C\C/C=C\C/C=C\CCCCNC(=O)CCO | 7.94 µM | 286%
